In brackets after ≈: the same amount, converted by molar mass. Like-named read-outs stand apart in the source and are kept apart here.
Tests used:
[1] = test system: DH10B Escherichia coli pBCSK− no insert; test: MIC by broth microdilution, DH10B E. coli with pBCSK− no insert; type: cell-based; details: DH10B E. coli with pBCSK− no insert (control strain), FDC in iron-depleted cation-adjusted MH broth
Description: (§1) Susceptibility testing to standard antibiotics was performed by broth microdilution according to 2024 Clinical and Laboratory Standards Institute (CLSI) guidelines ([38]). MICs for FDC were done in iron-depleted cation-adjusted Mueller-Hinton (MH) broth according to CLSI methods. All MICs were interpreted according to the 2024 CLSI guidelines ([38]). MICs are done in triplicate, and the mode MIC value is reported.
(§2) blaADC-7 pBCSK− was cloned and expressed in E. coli DH10B cells as previously described for MIC determinations ([3]). The pBCSK-non-inducible phagemid vector has a chloramphenicol resistance gene used to aid selection. All other blaADC variants were synthesized by GenScript according to the blaADC-7 pBCSK− strategy, cloning into the XbaI/BamHI sites of the pBCSK− vector ([5]).

DH10B alone = test: MIC by broth microdilution, DH10B alone; type: cell-based; details: Escherichia coli; DH10B alone (control strain); FDC in iron-depleted cation-adjusted MH broth
Description: as §1, §2

[2] = test system: ADC-33 in DH10B Escherichia coli; test: MIC by broth microdilution, ADC-33 in DH10B E. coli; type: cell-based; details: DH10B E. coli expressing ADC-33 (Adup) from pBCSK−, FDC in iron-depleted cation-adjusted MH broth, mode of triplicate
Description: as §1, §2

[3] = test system: ADC-217 in DH10B Escherichia coli; test: MIC by broth microdilution, ADC-217 in DH10B E. coli; type: cell-based; details: DH10B E. coli expressing ADC-217 (non-Adup) from pBCSK−, FDC in iron-depleted cation-adjusted MH broth, mode of triplicate
Description: as §1, §2

[4] = test system: ADC-219 in DH10B Escherichia coli; test: MIC by broth microdilution, ADC-219 in DH10B E. coli; type: cell-based; details: DH10B E. coli expressing ADC-219 (Adup) from pBCSK−, FDC in iron-depleted cation-adjusted MH broth, mode of triplicate
Description: as §1, §2

[5] = test system: ADC-218 in DH10B Escherichia coli; test: MIC by broth microdilution, ADC-218 in DH10B E. coli; type: cell-based; details: DH10B E. coli expressing ADC-218 (Adup) from pBCSK−, FDC in iron-depleted cation-adjusted MH broth, mode of triplicate
Description: as §1, §2

[6] = test system: ADC-172 in DH10B Escherichia coli; test: MIC by broth microdilution, ADC-172 in DH10B E. coli; type: cell-based; details: DH10B E. coli expressing ADC-172 (Adup) from pBCSK−, FDC in iron-depleted cation-adjusted MH broth, mode of triplicate
Description: as §1, §2

[7] = test system: ADC-73 in DH10B Escherichia coli; test: MIC by broth microdilution, ADC-73 in DH10B E. coli; type: cell-based; details: DH10B E. coli expressing ADC-73 (non-Adup) from pBCSK−, FDC in iron-depleted cation-adjusted MH broth, mode of triplicate
Description: as §1, §2

[8] = test system: ADC-143 in DH10B Escherichia coli; test: MIC by broth microdilution, ADC-143 in DH10B E. coli; type: cell-based; details: DH10B E. coli expressing ADC-143 (non-Adup) from pBCSK−, FDC in iron-depleted cation-adjusted MH broth, mode of triplicate
Description: as §1, §2

[9] = test system: ADC-7 in DH10B Escherichia coli; test: MIC by broth microdilution, ADC-7 in DH10B E. coli; type: cell-based; details: DH10B E. coli expressing ADC-7 (non-Adup) from pBCSK−, FDC in iron-depleted cation-adjusted MH broth, mode of triplicate
Description: as §1, §2

[10] = test system: ADC-30 in DH10B Escherichia coli; test: MIC by broth microdilution, ADC-30 in DH10B E. coli; type: cell-based; details: DH10B E. coli expressing ADC-30 (non-Adup) from pBCSK−, FDC in iron-depleted cation-adjusted MH broth, mode of triplicate
Description: as §1, §2

ADC-30 [11] = target: T1, ADC-30 (Acinetobacter baumannii, UniProt A7XM81); test: Thermal denaturation by circular dichroism, ADC-30; type: binding; details: ADC-30 12 µM, 1 mM antibiotic, PBS pH 7.4; read-out: change of Tm of the β-lactamase on addition of antibiotic
Description: (§3) For thermal denaturation, protein samples were monitored for helical content by circular dichroism in the far-UV region at 210 and 220 nm using a Jasco J-815 spectrometer (Easton, MD) with a Peltier-effect temperature controller, as previously described ([41]). Enzyme concentrations were 12 µM in phosphate-buffered saline (PBS) pH 7.4. The thermodynamic stability of apoADC-30 and ADC-33, and with 1 mM FDC and CAZ, was determined from equilibrium unfolding curves. With the assumption of a reversible two-state transition, we determined the Tm at the midpoint of equilibrium folding. Thermal denaturation experiments were done in duplicate under the same conditions, with each data point representing the average of three successive scans, and the Tm values are consistent with ±1°C variation.

ADC-7 = ADC-7 (Acinetobacter baumannii, UniProt Q6DRA1); test: Competition kinetics with nitrocefin (Ki), ADC-7; type: biochemical; details: 3 min pre-incubation, Cheng-Prusoff corrected
Description: (§4) For inhibition kinetics, utilizing NCF as a colorimetric substrate of ADCs, the inhibition constant (Ki) of CAZ and FDC with ADCs was determined using competition kinetics as previously described ([5]). After a 3 min pre-incubation of the enzyme (2 nM) with increasing concentration of the inhibitor, measurements of the initial velocities were performed with the addition of 100–200 µM NCF (twofold of the experimentally determined KM value). To determine the average velocities (v0), data from three experiments were fit to the followingequation: […]
(§5) where vu represents the NCF uninhibited velocity and IC50 represents the inhibitor concentration that results in a 50% reduction of vu. The Ki value was corrected for the NCF affinity (KM values for each ADC) with the Cheng-Prusoff ([5]) equation: […]
(§6) The standard error for Ki values was generated by factoring in the larger of the proportional standard errors for the individual IC50 value and the KM -NCF value.

ADC-172 = ADC-172 (Acinetobacter baumannii, UniProt A7Y407, N321K); test: Competition kinetics with nitrocefin (Ki), ADC-172; type: biochemical; details: 3 min pre-incubation, Cheng-Prusoff corrected
Description: as §4, §5, §6

CRAb isolates = details: certain CRAb isolates with elevated MICs; cited from earlier work
ADC-217 = ADC-217 (Acinetobacter baumannii, UniProt Q6DRA1, V286E, form not given); test: Competition kinetics with nitrocefin (Ki), ADC-217; type: biochemical; details: 3 min pre-incubation, Cheng-Prusoff corrected
Description: as §4, §5, §6

ADC-30 [12] = target: T1, ADC-30; test: Timed electrospray ionization mass spectrometry of acylated adducts, ADC-30; type: binding; details: ADC-30, +468 Da adduct, at 1 h; enzyme:substrate 1:25
Description: (§7) β-Lactamase (5 µg) was incubated with substrate at a molar ratio of 1:25 (FDC, CAZ, meropenem [MEM]) in sterile 10 mM PBS, pH 7.4, for a total reaction volume of 20 µL (t = 30 s, 1 min, 15 min, 30 min, 1 h, 2 h, and 24 h). Reactions were quenched with 1% acetonitrile and 0.1% formic acid. Samples were analyzed using Q-TOF Waters Synapt-G2-Si and a Waters Acquity ultrapressure liquid chromatography BEH C18 column (1.7 µm […]; 2.1 × 50 mm). MassLynx v.4.1 was used to deconvolute protein peaks. The tune settings for each data run were as follows: capillary voltage at 3.5 kV, sampling cone at 35, source offset at 35, source temperature 100°C, desolvation temperature 500°C, cone gas at 100 L/h, desolvation gas at 800 L/h, and nebulizer bar at 6.0. Mobile phase A was 0.1% formic acid-water. Mobile phase B was 0.1% formic acid-acetonitrile. The mass accuracy for this system is ±5 Da. Mass spectrometry experiments were performed once over a range of time points.

ADC-33 [13] = target: T2, ADC-33 (Acinetobacter baumannii, UniProt A7Y407); test: Thermal denaturation by circular dichroism, ADC-33; type: binding; details: ADC-33 12 µM, 1 mM antibiotic, PBS pH 7.4
Description: as §3

ADC-143 = ADC-143 (Acinetobacter baumannii, UniProt Q6DRA1, Q144K, form not given); test: Competition kinetics with nitrocefin (Ki), ADC-143; type: biochemical; details: 3 min pre-incubation, Cheng-Prusoff corrected
Description: as §4, §5, §6

ADC-30 [14] = target: T1, ADC-30; test: Competition kinetics with nitrocefin (Ki), ADC-30; type: biochemical; details: 3 min pre-incubation, Cheng-Prusoff corrected
Description: as §4, §5, §6

ADC-33 [15] = target: T2, ADC-33; details: hydrolysis by ADC-33; previously determined; cited from earlier work
ADC-33 [16] = target: T2, ADC-33; test: Competition kinetics with nitrocefin (Ki), ADC-33; type: biochemical; details: 3 min pre-incubation, Cheng-Prusoff corrected
Description: as §4, §5, §6

ADC-73 = ADC-73 (Acinetobacter baumannii, UniProt A0A059ZDI2); test: Competition kinetics with nitrocefin (Ki), ADC-73; type: biochemical; details: 3 min pre-incubation, Cheng-Prusoff corrected
Description: as §4, §5, §6

ADC-33 [17] = target: T2, ADC-33; test: Timed electrospray ionization mass spectrometry of acylated adducts, ADC-33; type: binding; details: ADC-33, incubation 30 s–1 h; enzyme:substrate 1:25
Description: as §7

[18] = Escherichia coli, read-out: MIC

CC(=O)OCC1=C(C(=O)O)N2C(=O)[C@@H](NC(=O)Cc3cccs3)[C@H]2SC1 [CEF, cephalothin]
MIC [1]: 8 µg/mL (≈ 20.2 µM) | MIC (DH10B alone): 16 µg/mL (≈ 40.4 µM) | MIC [2]: 2050 µg/mL (≈ 5170 µM) | MIC [3]: 2050 µg/mL (≈ 5170 µM) | MIC [4]: 1020 µg/mL (≈ 2580 µM) | MIC [5]: 2050 µg/mL (≈ 5170 µM) | MIC [6, 18]: 2050 µg/mL (≈ 5170 µM) | MIC [7]: 2050 µg/mL (≈ 5170 µM) | MIC [8]: 2050 µg/mL (≈ 5170 µM) | MIC [9]: 4100 µg/mL (≈ 10300 µM) | MIC [10]: 4100 µg/mL (≈ 10300 µM)

CC(C)(O/N=C(\C(=O)N[C@@H]1C(=O)N2C(C(=O)[O-])=C(C[N+]3(CCNC(=O)c4ccc(O)c(O)c4Cl)CCCC3)CS[C@H]12)c1csc(N)n1)C(=O)O [FDC, cefiderocol]
MIC [1]: 0.125 µg/mL (≈ 0.166 µM) | ΔTm at 1000 µM (ADC-30 [11]): 2 °C | Ki (ADC-7): 75 ± 5.32 µM | MIC (DH10B alone): 0.06 µg/mL (≈ 0.0798 µM) | Ki (ADC-172): 3.26 ± 0.31 µM | MIC [2]: 0.5 µg/mL (≈ 0.665 µM) | MIC (CRAb isolates): ≥ 64 µg/mL | MIC [3]: 0.25 µg/mL (≈ 0.332 µM) | Ki (ADC-217): 0.21 ± 0.025 µM | MIC [5]: 0.5 µg/mL (≈ 0.665 µM) | MIC [6]: 1.0 µg/mL (≈ 1.33 µM) | MIC [6, 18]: 1 µg/mL (≈ 1.33 µM) | percentage of acylated adduct (ADC-30 [12]): 70% | change of Tm of the β-lactamase on addition of antibiotic (ADC-33 [13]): not observed | Ki (ADC-143): 171 ± 27.7 µM | Ki (ADC-30 [14]): 62.7 ± 3.95 µM | kcat (ADC-33 [15]): 0.60 s⁻¹ | Ki (ADC-33 [16]): 19.3 ± 1.46 µM | Ki (ADC-73): 111 ± 9.7 µM | formation of stable acyl-enzyme adduct (ADC-33 [17]): did not form a stable acyl-enzyme adduct

Reference: paper PMC12153338, “Resistance to oxyimino-cephalosporins conferred by an alternative mechanism of hydrolysis by the Acinetobacter-derived cephalosporinase-33 (ADC-33), a class C β-lactamase present in carbapenem-resistant Acinetobacter baumannii (CRAb)” (mBio, 2025)
